One molecule from PMC4669708 (Cell Death & Disease, 2015) can be followed below.

Like-named read-outs stand apart in the source and are kept apart here.

For assay [1], the system named is HT-29 cells. The assay is described as follows: Drug toxicity, cell viability 24 h. In kind it is cell-based. The conditions noted are these: Homo sapiens, HT-29, 24 h. On the procedure:
(§1) Cells were seeded in 12-, 24- or 96-well plates at proper cell density. For necroptosis or apoptosis assays, cells were incubated with the indicated compound combinations at concentrations stated for 14–24 h. Smac mimetic and z-VAD-FMK were added 30–60 min before treatment with TNF-α, FasL or TRAIL. Cell viability was determined using CellTiter Glo Luminescent Cell Viability Assay (Promega, Fitchburg, WI, USA) according to the manufacturer's instructions. Luminescence was recorded with a SpectraMax M5Multimode plate reader (Molecular Devices, Sunnyvale, CA, USA). For flow cytometry-based determination of viability, cells were harvested, collected by centrifugation, washed once and resuspended in staining buffer (1 × PBS, 10% FBS). Cells were incubated with 0.5 μg/ml PI for 10 min at room temperature (RT) in the dark. Flow cytometric analyses were performed on an LSR Fortessa (BD Biosciences) and analyzed with FlowJo software version 7.6.3 (Tree Star Inc, Ashland, OR, USA). Cell size was evaluated by forward scatter. PI-negative normal-sized cells were considered living and data were normalized to values of untreated controls.

The subject of assay [2] is FADD-deficient Jurkat cells. The assay is described as follows: Drug toxicity, cell viability without TNF-α. The assay is classed as cell-based. The conditions noted are these: Homo sapiens, 24 h, no TNF-α, CellTiter Glo. The procedure: as §1, with “controls. For detection of apoptosis, cells were resuspended in Annexin V Binding Buffer (BioLegend, San Diego, CA, USA) and stained with 0.5 μg/ml PI and Alexa Fluor 647 Annexin V (BioLegend) according to manufacturer's instructions.” for “controls.”

A further assay addresses T1, recombinant RIPK1 (Homo sapiens, UniProt Q13546).
T1 construct: purchased Signalchem R07-10G
The assay is described as follows: Recombinant kinase assay. To be noted: 50 μM ATP; Supplementary Figure 4b. In kind it is biochemical. On the procedure: Recombinant RIPK1 or RIPK3 protein was incubated with the substrate MBP in kinase assay buffer (40 mM Tris-HCl pH 7.5, 10 mM MgCl2 and 1 mM DTT) in presence of 50 μM ATP, 5 μCi [γ-32 P]ATP and the indicated inhibitors in a total volume of 20 μl. […] The terminated reactions were spotted onto a SAM2 Biotin Capture membrane (Promega) and further processed according to the manufacturer's instructions. […] Data were normalized to a DMSO-treated control sample. For autoradiography, the reactions were stopped by addition of 5 μl 4x Laemmli buffer and incubated for 5 min at 95 °C.

Another assay deals with 3T3-SA cells. The assay is described as follows: TNF-α/z-VAD (TZ)-induced necroptosis. The assay is classed as cell-based, murine. To be noted: Supplementary Figures 3a, b. The procedure:
as §1, with “controls. For detection of apoptosis, cells were resuspended in Annexin V Binding Buffer (BioLegend, San Diego, CA, USA) and stained with 0.5 μg/ml PI and Alexa Fluor 647 Annexin V (BioLegend) according to manufacturer's instructions.” for “controls.”

The next assay concerns Jurkat E6.1 cells. The assay is described as follows: FasL-induced apoptosis, cell viability. The conditions noted are these: 100 ng/ml human FasL, 24 h; 0.5 μM ponatinib, 5 μM pazopanib. The assay is classed as cell-based. On the procedure:
as §1, with “controls. For detection of apoptosis, cells were resuspended in Annexin V Binding Buffer (BioLegend, San Diego, CA, USA) and stained with 0.5 μg/ml PI and Alexa Fluor 647 Annexin V (BioLegend) according to manufacturer's instructions.” for “controls.”

For a further assay, the system named is L929 cells. The assay is described as follows: TNF-α/z-VAD-FMK-induced necroptosis. The assay is classed as cell-based, murine. The conditions noted are these: Supplementary Figures 3c, d. On the procedure:
as §1, with “controls. For detection of apoptosis, cells were resuspended in Annexin V Binding Buffer (BioLegend, San Diego, CA, USA) and stained with 0.5 μg/ml PI and Alexa Fluor 647 Annexin V (BioLegend) according to manufacturer's instructions.” for “controls.”

A further assay concerns 3T3-SA or L929 cells. The assay is described as follows: Drug toxicity dose-response, Supplementary Figure 3. The assay is classed as cell-based, murine. To be noted: Mus musculus, read-out: IC50 (printed in Supplementary Figure 3). The procedure: as §1, with “controls. For detection of apoptosis, cells were resuspended in Annexin V Binding Buffer (BioLegend, San Diego, CA, USA) and stained with 0.5 μg/ml PI and Alexa Fluor 647 Annexin V (BioLegend) according to manufacturer's instructions.” for “controls.”

In assay [3] the test system is HT-29 cells. The assay is described as follows: TNF-α/Smac mimetic/z-VAD-FMK (TSZ)-induced necroptosis, cell viability. In kind it is cell-based, human. The conditions noted are these: Homo sapiens, HT-29; TSZ treatment; read-out: EC50 (necroptosis block). On the procedure: as §1

T1 sequence (Q13546 1-327 limits assumed): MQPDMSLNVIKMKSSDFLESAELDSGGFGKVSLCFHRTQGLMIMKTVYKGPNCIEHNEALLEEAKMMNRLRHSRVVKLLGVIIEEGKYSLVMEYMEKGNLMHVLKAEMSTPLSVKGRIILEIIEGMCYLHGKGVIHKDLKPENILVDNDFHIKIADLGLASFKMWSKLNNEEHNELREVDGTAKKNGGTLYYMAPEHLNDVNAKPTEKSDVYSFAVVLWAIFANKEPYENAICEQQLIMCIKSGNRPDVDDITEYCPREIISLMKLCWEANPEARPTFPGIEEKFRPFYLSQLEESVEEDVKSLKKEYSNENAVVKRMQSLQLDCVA

In the case of `Cc1ccc(C(=O)Nc2ccc(CN3CCN(C)CC3)c(C(F)(F)F)c2)cc1C#Cc1cnc2cccnn12` [ponatinib, Ponatinib], the IC50 in the assay with HT-29 cells [1] (read-out: IC50 (printed in Figure 2e)) was 8890 nM; with HT-29 cells [1] (read-out: IC50 (toxicity)), 8900 nM; in assay [2] it was 1600 nM; in the assay with 3T3-SA or L929 cells, 1100 nM. The “RIPK1 kinase activity (MBP phosphorylation)” value on recombinant RIPK1 is “strongly blocked phosphorylation”. Besides, the “block of necroptotic cell death” value with 3T3-SA cells is “capable of blocking necroptotic cell death with comparable potency”. Besides, the “inhibition of apoptotic cell death triggered by FasL” value with Jurkat E6.1 cells is “none of the drugs inhibited apoptotic cell death”. Moreover, in the assay on L929 cells, the protection from necroptosis entry was “the effect was partial and confined to a small dosage window around 100 nM”. Also, the EC50 with HT-29 cells [3] worked out at 50 nM.
